Reference: US10968236B2, “TYK2 inhibitors and uses thereof” (Nimbus Lakshmi, Inc., priority 2015, dated 2021)

What was measured:
[1] = biological target: JAK2 (Homo sapiens (Human), UniProt O60674); test: JAK2 activity inhibition assay (radioactive kinase / Caliper assay); type: biochemical
Experimental: (§1) Peptide substrate, [KKSRGDYMTMQIG], (20 μM) is prepared in reaction buffer (20 mM Hepes pH 7.5, 10 mM MgCl2, 1 mM EGTA, 0.02% Brij35, 0.02 mg/mL BSA, 0.1 mM […], 2 mM DTT, 1% DMSO. TYK2 (Invitrogen) kinase is added, followed by compounds in DMSO. 33PATP is added to initiate the reaction in ATP at 10 μM. Kinase reaction is incubated for 120 min at room temp and reactions are spotted onto P81 ion exchange paper (Whatman #3698-915), and then washed extensively in 0.75% phosphoric acid, prior to reading the radioactivity counts. For JAK2 (Invitrogen) kinase assay the peptide substrate poly[Glu:Tyr] (4:1), 0.2 mg/ml is used, in the reaction carried out the same as for TYK2.
(§2) The caliper machine employs an off chip mobility shift assay to detect phosphorylated peptide substrates from kinase assays, using microfluidics technology. The assays are carried out at ATP concentration equivalent to the ATP Km, and at 1 mM ATP. Compounds are serially diluted in DMSO then further diluted in assay buffer (25 mM HEPES, pH 7.5, 0.01% Brij-35, 0.01% Triton, 0.5 mM EGTA). 5 ul of diluted compound was added into wells first, then 10 ul of enzyme mix was added into wells, followed by 10 uL of substrate mix (peptide and ATP in 10 mM MgCl2) to start reaction. Reaction was incubated at 28° C. for 25 min and then added 25 ul stop buffer (100 mM HEPES, 0.015% Brij-35, 50 mM EDTA), followed by reading with Caliper. JAK2 at 1 nM final concentration and TYK2 at 9.75 nM are from Carna, and substrates used are ATP at 20 and 16 uM, respectively. JAK2 assay uses peptide 22 and TYK2 uses peptide 30 (Caliper), each at 3 uM.
(§3) The compound numbers correspond to the compound numbers in Table 1. Compounds having an activity designated as “A” provided an Ki≤0.01 μM; compounds having an activity designated as “B” provided an Ki of 0.01-0.1 μM; compounds having an activity designated as “C” provided an Ki of 0.1-1.0 μM; and compounds having an activity designated as “D” provided an Ki≥1.0 μM.

[2] = biological target: TYK2 (Homo sapiens (Human), UniProt P29597); test: Tyk2 activity inhibition assay (radioactive kinase / Caliper assay); type: biochemical
Experimental: as §1, §2, §3

Sequence of JAK2 (O60674 whole entry): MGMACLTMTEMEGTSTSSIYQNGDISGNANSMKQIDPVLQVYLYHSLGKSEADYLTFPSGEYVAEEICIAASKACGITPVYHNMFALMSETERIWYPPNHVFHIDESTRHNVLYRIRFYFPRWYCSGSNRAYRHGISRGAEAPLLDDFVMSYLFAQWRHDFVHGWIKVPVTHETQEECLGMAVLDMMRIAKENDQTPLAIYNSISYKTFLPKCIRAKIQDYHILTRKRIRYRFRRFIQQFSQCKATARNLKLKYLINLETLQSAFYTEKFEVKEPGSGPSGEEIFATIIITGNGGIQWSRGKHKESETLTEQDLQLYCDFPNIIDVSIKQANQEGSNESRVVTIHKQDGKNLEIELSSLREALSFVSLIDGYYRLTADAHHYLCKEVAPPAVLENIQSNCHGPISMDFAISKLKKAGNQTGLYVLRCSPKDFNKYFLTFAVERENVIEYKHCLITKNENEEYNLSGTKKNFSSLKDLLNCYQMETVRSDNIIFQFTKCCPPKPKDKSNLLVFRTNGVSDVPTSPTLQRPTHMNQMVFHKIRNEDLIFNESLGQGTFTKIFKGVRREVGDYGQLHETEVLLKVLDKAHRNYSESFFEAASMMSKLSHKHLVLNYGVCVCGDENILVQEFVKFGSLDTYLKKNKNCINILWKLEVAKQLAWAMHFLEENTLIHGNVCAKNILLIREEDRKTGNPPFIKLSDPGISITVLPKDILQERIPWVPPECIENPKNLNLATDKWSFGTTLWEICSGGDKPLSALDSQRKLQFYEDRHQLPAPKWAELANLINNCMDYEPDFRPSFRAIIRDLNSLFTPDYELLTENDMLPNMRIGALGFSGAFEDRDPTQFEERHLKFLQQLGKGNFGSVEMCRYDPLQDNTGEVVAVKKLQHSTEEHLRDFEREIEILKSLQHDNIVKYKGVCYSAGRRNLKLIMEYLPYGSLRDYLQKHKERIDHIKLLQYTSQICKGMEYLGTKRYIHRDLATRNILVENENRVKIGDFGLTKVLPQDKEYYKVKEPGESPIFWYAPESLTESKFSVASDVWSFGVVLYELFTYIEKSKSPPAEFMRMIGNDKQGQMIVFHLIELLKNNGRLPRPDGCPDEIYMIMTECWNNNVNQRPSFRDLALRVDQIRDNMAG
Sequence of TYK2 (P29597 whole entry): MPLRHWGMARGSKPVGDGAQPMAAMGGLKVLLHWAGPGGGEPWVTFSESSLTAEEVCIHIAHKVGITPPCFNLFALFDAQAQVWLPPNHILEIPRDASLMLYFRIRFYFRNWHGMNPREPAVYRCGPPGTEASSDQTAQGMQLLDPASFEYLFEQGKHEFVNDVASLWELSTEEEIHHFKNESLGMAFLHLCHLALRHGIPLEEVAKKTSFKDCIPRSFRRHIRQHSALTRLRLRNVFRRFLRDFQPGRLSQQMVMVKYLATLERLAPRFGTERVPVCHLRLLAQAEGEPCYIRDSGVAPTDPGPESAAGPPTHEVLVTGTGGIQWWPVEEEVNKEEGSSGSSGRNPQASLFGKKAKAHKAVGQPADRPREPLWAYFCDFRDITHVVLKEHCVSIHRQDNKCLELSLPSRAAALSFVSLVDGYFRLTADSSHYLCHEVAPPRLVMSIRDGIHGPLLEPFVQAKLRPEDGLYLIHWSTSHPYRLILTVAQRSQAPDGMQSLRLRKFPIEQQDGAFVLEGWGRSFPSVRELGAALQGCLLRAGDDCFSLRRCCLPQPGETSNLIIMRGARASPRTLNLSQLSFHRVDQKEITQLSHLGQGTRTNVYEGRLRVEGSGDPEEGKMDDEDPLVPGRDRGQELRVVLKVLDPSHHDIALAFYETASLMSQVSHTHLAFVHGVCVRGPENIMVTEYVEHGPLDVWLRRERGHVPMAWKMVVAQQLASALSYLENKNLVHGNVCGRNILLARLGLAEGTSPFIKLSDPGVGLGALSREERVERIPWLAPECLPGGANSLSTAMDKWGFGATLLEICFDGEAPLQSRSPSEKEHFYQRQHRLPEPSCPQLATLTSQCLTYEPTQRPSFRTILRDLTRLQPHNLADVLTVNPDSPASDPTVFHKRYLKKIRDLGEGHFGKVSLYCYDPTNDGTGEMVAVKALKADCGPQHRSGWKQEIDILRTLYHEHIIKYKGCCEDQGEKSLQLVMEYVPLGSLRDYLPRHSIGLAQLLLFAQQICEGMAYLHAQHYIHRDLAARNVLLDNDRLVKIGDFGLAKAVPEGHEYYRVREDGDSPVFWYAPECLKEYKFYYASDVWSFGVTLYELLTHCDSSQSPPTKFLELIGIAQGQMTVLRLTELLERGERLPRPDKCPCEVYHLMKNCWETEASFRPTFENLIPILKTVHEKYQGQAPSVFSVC

Row | Structure (SMILES) | Ki [1] [nM] | Ki [2] [nM]
1 | CCNC(=O)C(C)(O)c1ccc(Nc2nc(-c3c(F)cccc3F)nc3c2C(=O)NC3)cc1 (stereo not drawn) [Compound I-14, 2-(4-((2-(2,6-difluorophenyl)-5-oxo-6,7-dihydro-5H-pyrrolo[3,4-d]pyrimidin-4-yl)amino)phenyl)-N-ethyl-2-hydroxypropanamide] | 100 to 1000 | ≤ 10
2 | O=C1NCc2nc(-c3c(F)cccc3F)cc(Nc3ccc(N4CCC5(CC4)COC5)cn3)c21 [Compound I-24, 4-((5-(2-oxa-7-azaspiro[3.5]nonan-7-yl)pyridin-2-yl)amino)-2-(2,6-difluorophenyl)-6,7-dihydro-5H-pyrrolo[3,4-b]pyridin-5-one] | ≤ 10 | ≤ 10
3 | CCNC(=O)[C@@](O)(CC(F)(F)F)c1ccc(Nc2nc(-c3c(F)cccc3F)nc3c2C(=O)NC3)cc1 [Compound I-28, (R)-2-(4-((2-(2,6-difluorophenyl)-5-oxo-6,7-dihydro-5H-pyrrolo[3,4-d]pyrimidin-4-yl)amino)phenyl)-N-ethyl-4,4,4-trifluoro-2-hydroxybutanamide] | 100 to 1000 | –
4 | O=C1NCc2nc(-c3c(F)cccc3F)cc(Nc3ccc(C(=O)N4CCC5(CC4)CC5)cc3)c21 [Compound I-57, 4-((4-(6-azaspiro[2.5]octane-6-carbonyl)phenyl)amino)-2-(2,6-difluorophenyl)-6,7-dihydro-5H-pyrrolo[3,4-b]pyridin-5-one] | 10 to 100 | ≤ 10
5 | CCNC(=O)C(O)(CC(F)(F)F)c1ccc(Nc2nc(-c3c(F)cccc3F)nc3c2C(=O)NC3)cc1 (stereo not drawn) [Compound I-26, 2-(4-((2-(2,6-difluorophenyl)-5-oxo-6,7-dihydro-5H-pyrrolo[3,4-d]pyrimidin-4-yl)amino)phenyl)-N-ethyl-4,4,4-trifluoro-2-hydroxybutanamide] | 100 to 1000 | ≤ 10
6 | CCNC(=O)C(C)(N)c1ccc(Nc2nc(-c3c(F)cccc3F)nc3c2C(=O)NC3)cc1 (stereo not drawn) [Compound I-9, 2-amino-2-(4-((2-(2,6-difluorophenyl)-5-oxo-6,7-dihydro-5H-pyrrolo[3,4-d]pyrimidin-4-yl)amino)phenyl)-N-ethylpropanamide] | 10 to 100 | 10 to 100
7 | O=C1NCc2nc(-c3c(F)cccc3F)cc(Nc3ccc(N4CCC5(CCCCO5)CC4)cn3)c21 [Compound I-53, 4-((5-(1-oxa-9-azaspiro[5.5]undecan-9-yl)pyridin-2-yl)amino)-2-(2,6-difluorophenyl)-6,7-dihydro-5H-pyrrolo[3,4-b]pyridin-5-one] | 10 to 100 | ≤ 10
8 | CC(O)(c1ccc(Nc2cc(-c3c(F)cccc3F)nc3c2C(=O)NC3)nc1)C(F)(F)F (stereo not drawn) [Compound I-78, 2-(2,6-difluorophenyl)-4-((5-(1,1,1-trifluoro-2-hydroxypropan-2-yl)pyridin-2-yl)amino)-6,7-dihydro-5H-pyrrolo[3,4-b]pyridin-5-one] | 10 to 100 | ≤ 10
9 | O=C1NCc2nc(-c3c(F)cccc3F)nc(Nc3ccc(OC(CO)CO)cc3)c21 [Compound I-12, 2-(2,6-difluorophenyl)-4-((4-((1,3-dihydroxypropan-2-yl)oxy)phenyl)amino)-6,7-dihydro-5H-pyrrolo[3,4-d]pyrimidin-5-one] | 100 to 1000 | ≤ 10
10 | CN1C(=O)[C@@](C)(c2ccc(Nc3nc(-c4c(F)cccc4F)nc4c3C(=O)NC4)cc2)Oc2ccccc21 [Compound I-41, (R)-2-(4-((2-(2,6-difluorophenyl)-5-oxo-6,7-dihydro-5H-pyrrolo[3,4-d]pyrimidin-4-yl)amino)phenyl)-2,4-dimethyl-2H-benzo[b][1,4]oxazin-3(4H)-one] | 100 to 1000 | 100 to 1000
11 | CN1C(=O)[C@](C)(c2ccc(Nc3nc(-c4c(F)cccc4F)nc4c3C(=O)NC4)cc2)Oc2ccccc21 [Compound I-40, (S)-2-(4-((2-(2,6-difluorophenyl)-5-oxo-6,7-dihydro-5H-pyrrolo[3,4-d]pyrimidin-4-yl)amino)phenyl)-2,4-dimethyl-2H-benzo[b][1,4]oxazin-3(4H)-one] | – | 100 to 1000
12 | O=C1NCc2nc(-c3c(F)cccc3F)nc(Nc3ccc([C@H](O)C(F)(F)F)cc3)c21 [Compound I-30, (S)-2-(2,6-difluorophenyl)-4-((4-(2,2,2-trifluoro-1-hydroxyethyl)phenyl)amino)-6,7-dihydro-5H-pyrrolo[3,4-d]pyrimidin-5-one] | 100 to 1000 | –
13 | C[C@@](O)(c1ccc(Nc2nc(-c3c(F)cccc3F)nc3c2C(=O)NC3)cc1)C(F)(F)F [Compound I-35, (R)-2-(2,6-difluorophenyl)-4-((4-(1,1,1-trifluoro-2-hydroxy-propan-2-yl)phenyl)amino)-6,7-dihydro-5H-pyrrolo[3,4-d]pyrimidin-5-one] | 100 to 1000 | –
14 | CCNC(=O)[C@](O)(CC(F)(F)F)c1ccc(Nc2nc(-c3c(F)cccc3F)nc3c2C(=O)NC3)cc1 [Compound I-27, (S)-2-(4-((2-(2,6-difluorophenyl)-5-oxo-6,7-dihydro-5H-pyrrolo[3,4-d]pyrimidin-4-yl)amino)phenyl)-N-ethyl-4,4,4-trifluoro-2-hydroxybutanamide] | 10 to 100 | –
15 | O=C1NCc2nc(-c3c(F)cccc3F)nc(Nc3ccc([C@@H](O)C(F)(F)F)cc3)c21 [Compound I-31, (R)-2-(2,6-difluorophenyl)-4-((4-(2,2,2-trifluoro-1-hydro-xyethyl)phenyl)amino)-6,7-dihydro-5H-pyrrolo[3,4-d]pyrimidin-5-one] | 10 to 100 | –

Second part, the compound after the results:

Row | Ki [1] [nM] | Ki [2] [nM] | Structure (SMILES)
16 | ≥ 1000 | 10 to 100 | O=C1NCc2nc(-c3c(F)cccc3F)cc(Nc3ccc4c(c3)COB4O)c21 [Compound I-61, 2-(2,6-difluorophenyl)-4-((1-hydroxy-1,3-dihydro-benzo-[c][1,2]oxaborol-5-yl)amino)-6,7-dihydro-5H-pyrrolo[3,4-b]pyridin-5-one]
17 | 10 to 100 | ≤ 10 | CC1(C)COc2cc(Nc3cc(-c4c(F)cccc4C#N)nc4c3C(=O)NC4)ccc21 [Compound I-80, 2-(4-((3,3-dimethyl-2,3-dihydrobenzofuran-6-yl)amino)-5-oxo-6,7-dihydro-5H-pyrrolo[3,4-b]pyridin-2-yl)-3-fluorobenzonitrile]
18 | 100 to 1000 | 10 to 100 | O=C1NCc2nc(-c3c(F)cccc3F)cc(Nc3ccc4c(c3)OCO4)c21 [Compound I-68, 4-(benzo[d][1,3]dioxol-5-ylamino)-2-(2,6-difluorophenyl)-6,7-dihydro-5H-pyrrolo[3,4-b]pyridin-5-one]
19 | 10 to 100 | ≤ 10 | N#Cc1cccc(F)c1-c1cc(Nc2ccc(N3CC[C@]4(C[C@@H](O)CO4)C3)cn2)c2c(n1)CNC2=O [Compound I-92, 3-fluoro-2-(4-((5-((3R,5S)-3-hydroxy-1-oxa-7-azaspiro[4.4]nonan-7-yl)pyridin-2-yl)amino)-5-oxo-6,7-dihydro-5H-pyrrolo[3,4-b]pyridin-2-yl)benzonitrile]
20 | ≤ 10 | ≤ 10 | CCNC(=O)C(C)(C)c1ccc(Nc2cc(-c3c(F)cccc3C#N)nc3c2C(=O)NC3)cc1 [Compound I-81, 2-(4-((2-(2-cyano-6-fluorophenyl)-5-oxo-6,7-dihydro-5H-pyrrolo[3,4-b]pyridin-4-yl)amino)phenyl)-N-ethyl-2-methylpropanamide]
21 | 10 to 100 | ≤ 10 | CC(O)(c1ccc(Nc2cc(-c3c(F)cccc3F)nc3c2C(=O)NC3)cc1)C(F)(F)F (stereo not drawn) [Compound I-42, 2-(2,6-difluorophenyl)-4-((4-(1,1,1-trifluoro-2-hydroxypropan-2-yl)phenyl)amino)-6,7-dihydro-5H-pyrrolo[3,4-b]pyridin-5-one]
22 | ≤ 10 | ≤ 10 | N#Cc1cccc(F)c1-c1cc(Nc2ccc(N3CC[C@@]4(C[C@@H](O)CO4)C3)cn2)c2c(n1)CNC2=O [Compound I-90]
23 | 10 to 100 | ≤ 10 | O=C1NCc2nc(-c3c(F)cccc3F)cc(Nc3ccc4cc[nH]c4n3)c21 [Compound I-21, 4-((1H-pyrrolo[2,3-b]pyridin-6-yl)amino)-2-(2,6-difluoro-phenyl)-6,7-dihydro-5H-pyrrolo[3,4-b]pyridin-5-one]
24 | 10 to 100 | – | C[C@](O)(c1ccc(Nc2cc(-c3c(F)cccc3F)nc3c2C(=O)NC3)cc1)C(F)(F)F [Compound I-43, (S)-2-(2,6-difluorophenyl)-4-((4-(1,1,1-trifluoro-2-hydroxypropan-2-yl)phenyl)amino)-6,7-dihydro-5H-pyrrolo[3,4-b]pyridin-5-one]
25 | 100 to 1000 | – | C[C@@](O)(c1ccc(Nc2cc(-c3c(F)cccc3F)nc3c2C(=O)NC3)cc1)C(F)(F)F [Compound I-44, (R)-2-(2,6-difluorophenyl)-4-((4-(1,1,1-trifluoro-2-hydroxy-nronan-2-yl)phenyl)amino)-6,7-dihydro-5H-pyrrolo[3,4-b]pyridin-5-one]
